Experimental data as given in PubChem BioAssay AID248 (DTP/NCI, 2004).
Toxic doses and inconclusive results are not listed. Rule as the data show it: active = T/C of 150% or more; inactive = T/C below 125%.

System: L1210 leukemia ip in BDF1 mice, survival T/C
Test: NCI In Vivo Anticancer Drug Screen. Data for tumor model L1210 Leukemia (intraperitoneal) in B6D2F1 (BDF1) mice
Settings: endpoint: mean survival time, higher = longer survival
Procedure, shortened: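 Value reflects the ratio of survival in compound-treated mice to survival in vehicle-treated controls, with both groups carrying the same transplanted tumor.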

[1] = dose: 100.0 mg/kg/injection, schedule: Q01DX009 (ip), vehicle: saline with Tween-80
[2] = dose: 200.0 mg/kg/injection, schedule: Q01DX009 (ip), vehicle: saline with Tween-80
[3] = dose: 400.0 mg/kg/injection, schedule: Q01DX009 (ip), vehicle: saline with Tween-80
[4] = dose: 100.0 mg/kg/injection, schedule: Q01DX001 (ip), vehicle: carboxymethylcellulose (CMC)
[5] = dose: 400.0 mg/kg/injection, schedule: Q01DX001 (ip), vehicle: carboxymethylcellulose (CMC)
[6] = dose: 400.0 mg/kg/injection, schedule: Q04DX003 (ip), vehicle: Klucel (hydroxypropylcellulose) (HPC)
[7] = dose: 100.0 mg/kg/injection, schedule: Q01DX001 (ip), vehicle: saline with Tween-80
[8] = dose: 100.0 mg/kg/injection, schedule: Q01DX001 (ip), vehicle: saline
[9] = dose: 200.0 mg/kg/injection, schedule: Q01DX001 (ip), vehicle: saline with Tween-80
[10] = dose: 200.0 mg/kg/injection, schedule: Q01DX001 (ip), vehicle: saline
[11] = dose: 400.0 mg/kg/injection, schedule: Q01DX001 (ip), vehicle: saline with Tween-80
[12] = dose: 400.0 mg/kg/injection, schedule: Q01DX001 (ip), vehicle: saline
[13] = dose: 100.0 mg/kg/injection, schedule: Q01DX009 (ip), vehicle: Klucel (hydroxypropylcellulose) (HPC)
[14] = dose: 200.0 mg/kg/injection, schedule: Q01DX009 (ip), vehicle: Klucel (hydroxypropylcellulose) (HPC)
[15] = dose: 50.0 mg/kg/injection, schedule: Q01DX001 (ip), vehicle: carboxymethylcellulose (CMC)
[16] = dose: 200.0 mg/kg/injection, schedule: Q01DX001 (ip), vehicle: carboxymethylcellulose (CMC)

Measured: T/C

CC(=O)N(C)c1ccc(NC(=O)Nc2cccc(C(F)(F)F)c2)cc1
inactive: [1] 94 % of control | [2] 99 % of control | [3] 97 % of control

CCc1cccc(CC)c1NC(=O)/C=C/C(=O)O
inactive: dose: 100.0 mg/kg/injection, schedule: Q04DX002 (ip), vehicle: saline with Tween-80 93 % of control | dose: 200.0 mg/kg/injection, schedule: Q04DX002 (ip), vehicle: saline with Tween-80 100 % of control | dose: 400.0 mg/kg/injection, schedule: Q04DX002 (ip), vehicle: saline with Tween-80 96 % of control

O=C(Nc1ccc(Cl)c([N+](=O)[O-])c1)OCCOc1ccccc1
inactive: [1] 101 % of control | dose: 100.0 mg/kg/injection, schedule: Q04DX003 (ip), vehicle: saline with Tween-80 110 % of control | [2] 110 % of control | dose: 200.0 mg/kg/injection, schedule: Q04DX003 (ip), vehicle: saline with Tween-80 105 % of control | [3] 106 % of control | dose: 400.0 mg/kg/injection, schedule: Q04DX003 (ip), vehicle: saline with Tween-80 100 % of control

O=C1NCCc2c1sc1ccccc21
inactive: [4] 95 % of control | [5] 90 % of control

COc1nc(Br)ccc1/C=N\NC(N)=S
inactive: dose: 10.0 mg/kg/injection, schedule: Q04DX003 (ip), vehicle: Klucel (hydroxypropylcellulose) (HPC) 101 % of control | dose: 20.0 mg/kg/injection, schedule: Q04DX003 (ip), vehicle: Klucel (hydroxypropylcellulose) (HPC) 95 % of control | [6] 98 % of control

OC(CCl)C(O)C(O)C(O)CCl (centres undefined)
inactive: dose: 44.0 mg/kg/injection, schedule: Q01DX001 (ip), vehicle: saline 103 % of control | dose: 66.0 mg/kg/injection, schedule: Q01DX001 (ip), vehicle: saline 103 % of control | [7] 95 % of control | [8] 103 % of control | dose: 150.0 mg/kg/injection, schedule: Q01DX001 (ip), vehicle: saline 96 % of control | [9] 92 % of control | [10] 101 % of control | [11] 89 % of control | [12] 97 % of control

Nc1cncc2ncc(-c3ccc(Cl)cc3)nc12
inactive: dose: 50.0 mg/kg/injection, schedule: Q01DX001 (ip), vehicle: other 105 % of control | dose: 100.0 mg/kg/injection, schedule: Q01DX001 (ip), vehicle: other 100 % of control | dose: 200.0 mg/kg/injection, schedule: Q01DX001 (ip), vehicle: other 94 % of control | dose: 400.0 mg/kg/injection, schedule: Q01DX001 (ip), vehicle: other 96 % of control

CCCCCCCCCCCCCCCC[N+](C)(CCO)Cc1ccccc1 (centres undefined)
inactive: dose: 12.5 mg/kg/injection, schedule: Q04DX002 (ip), vehicle: saline with Tween-80 93 % of control

C=COC(=O)N1CCCC1C(=O)O (centres undefined)
inactive: [8] 92 % of control | [10] 94 % of control | [12] 90 % of control

[Se]=P(c1ccccc1)(c1ccccc1)c1ccccc1
inactive: [13] 103 % of control | [14] 90 % of control

COc1cccc(/C=N/NC(=O)CNC(=O)Nc2cccc([N+](=O)[O-])c2)c1OC
inactive: dose: 50.0 mg/kg/injection, schedule: Q01DX009 (ip), vehicle: saline with Tween-80 89 % of control | [1] 96 % of control | [2] 89 % of control

OCC(CO)(CCl)CCl
inactive: [1] 103 % of control | [2] 103 % of control | [3] 96 % of control

C[C@]1(O)CC[C@H]2[C@@H]3CC[C@@H]4C[C@H](O)CC[C@]4(C)[C@@]3(F)[C@@H](O)C[C@@]21C
inactive: dose: 50.0 mg/kg/injection, schedule: Q01DX Z (sc), vehicle: steriod suspending solution 107 % of control | dose: 250.0 mg/kg/injection, schedule: Q01DX Z (sc), vehicle: steriod suspending solution 101 % of control | dose: 500.0 mg/kg/injection, schedule: Q01DX Z (sc), vehicle: steriod suspending solution 95 % of control

CCOP(=O)(OCC)C(=Cc1ccccc1)P(=O)(OCC)OCC
inactive: [7] 106 % of control | [1] 107 % of control | [9] 103 % of control | [2] 105 % of control | [11] 103 % of control | [3] 107 % of control

Nc1ccc(N)cc1
inactive: dose: 1.5 mg/kg/injection, schedule: Q01DX009 (ip), vehicle: DMSO 94 % of control | dose: 3.0 mg/kg/injection, schedule: Q01DX009 (ip), vehicle: DMSO 92 % of control | dose: 5.0 mg/kg/injection, schedule: Q01DX001 (ip), vehicle: saline 98 % of control | dose: 5.0 mg/kg/injection, schedule: Q01DX009 (ip), vehicle: saline with Tween-80 100 % of control | dose: 5.0 mg/kg/injection, schedule: Q04DX003 (ip), vehicle: saline 103 % of control | dose: 6.0 mg/kg/injection, schedule: Q01DX009 (ip), vehicle: DMSO 92 % of control | dose: 6.25 mg/kg/injection, schedule: Q01DX009 (ip), vehicle: DMSO 94 % of control | dose: 10.0 mg/kg/injection, schedule: Q01DX001 (ip), vehicle: saline 102 % of control | dose: 10.0 mg/kg/injection, schedule: Q01DX009 (ip), vehicle: saline with Tween-80 96 % of control | dose: 10.0 mg/kg/injection, schedule: Q04DX003 (ip), vehicle: saline 98 % of control | dose: 12.5 mg/kg/injection, schedule: Q01DX009 (ip), vehicle: DMSO 89 % of control | dose: 20.0 mg/kg/injection, schedule: Q01DX001 (ip), vehicle: saline 106 % of control | dose: 20.0 mg/kg/injection, schedule: Q01DX009 (ip), vehicle: saline with Tween-80 99 % of control | dose: 20.0 mg/kg/injection, schedule: Q04DX003 (ip), vehicle: saline 97 % of control | dose: 40.0 mg/kg/injection, schedule: Q01DX001 (ip), vehicle: saline 106 % of control | dose: 100.0 mg/kg/injection, schedule: Q04DX003 (ip), vehicle: DMSO 91 % of control | dose: 200.0 mg/kg/injection, schedule: Q04DX003 (ip), vehicle: DMSO 88 % of control

COc1cc(C(=O)CC(O)(C(F)(F)F)C(F)(F)F)cc(OC)c1OC
inactive: dose: 50.0 mg/kg/injection, schedule: Q01DX009 (ip), vehicle: Klucel (hydroxypropylcellulose) (HPC) 95 % of control | dose: 100.0 mg/kg/injection, schedule: Q01DX001 (ip), vehicle: Klucel (hydroxypropylcellulose) (HPC) 86 % of control | [13] 97 % of control | dose: 200.0 mg/kg/injection, schedule: Q01DX001 (ip), vehicle: Klucel (hydroxypropylcellulose) (HPC) 100 % of control | [14] 98 % of control

C/C(CCCCCCCCC#N)=N/Nc1ccc([N+](=O)[O-])cc1[N+](=O)[O-]
inactive: dose: 100.0 mg/kg/injection, schedule: Q04DX003 (ip), vehicle: Klucel (hydroxypropylcellulose) (HPC) 93 % of control | dose: 200.0 mg/kg/injection, schedule: Q04DX003 (ip), vehicle: Klucel (hydroxypropylcellulose) (HPC) 93 % of control | [6] 98 % of control

OCC1OC(n2cc(Br)c3c(Cl)ncnc32)C(O)C1O (centres undefined)
inactive: [15] 117 % of control | [4] 87 % of control | [16] 93 % of control | [5] 112 % of control

CC(=O)O[C@@]1(C)C(=O)OCC2=CCN3CC[C@@H](OC(=O)[C@H](C)[C@]1(C)OC(C)=O)[C@@H]23
inactive: [8] 117 % of control

N/C(=N\N=C\c1ccc(-c2ccccc2)cc1)N[N+](=O)[O-]
inactive: [15] 104 % of control | [4] 100 % of control | [16] 93 % of control
